Columns and labels:
mTOR = mTOR (Homo sapiens, UniProt P42345); assay: mTOR LanthaScreen (TR-FRET, phosphorylation of 4EBP1); assay type: biochemical; conditions: phosphorylation of GFP-4E-BP1, 10 μM ATP, 90 minutes
Method: The mTOR LanthaScreen is a TR-FRET assay measuring the phosphorylation of mTOR's substrate 4EBP1. 384 well compound plates were prepared containing 1 μl of compound per well starting at 5 mM and diluted 1:2 across the row, resulting in a 22 well serial dilution. 24 μl of assay buffer (Invitrogen, PV4794) with 2 mM DTT was added to the compound plate in rows 1-24 using the VELOCITY 11™ VPREP™ 384 ST resulting in a DMSO concentration of 4%. The compound plate was mixed and 2.5 μl of serially diluted compound or controls was added to the assay plate (Costar, 3658).
The assay was conducted on the PerkinElmer® FlexDrop PLUS. A 5 μl mix of 800 nM GFP-4E-BP1 (Invitrogen, PV4759) and 20 μM ATP (Amgen) was added to rows 1-24. 2.5 μl of 0.6 μg/ml of mTOR Enzyme (Amgen) was added to rows 1-23. 2.5 μl of assay buffer was added to row 24 for the low control. The final concentration of the compounds was 50 μM serially diluted to 23.84 pM in 1% DMSO. […] The final concentrations in the assay reagents were 400 nM GFP-4E-BP1, 10 μM of ATP and 0.15 μg/ml of mTOR enzyme. The compound, enzyme, and substrate were incubated for 90 minutes. At this point, 10 μl of stop solution was added (20 mM Tris, pH 7.5 (Invitrogen, 15567-027), 0.02% Sodium Azide (Teknova, S0208), 0.01% NP-40 (Roche, 11754599001), 20 mM EDTA (Invitrogen, 15575-038) and 4 nM of Tb-anti-p4E-BP1 (Invitrogen, PV4758)) for a final concentration of 2 nM of Tb-anti-p4E-BP1.
Sixty minutes later the plates were read on the PerkinElmer® EnVision™ 2103 Multilable Reader using the Excitation filter 340 nm and the Emission filters 520 nm and 495 nm.

[1] = tested on: phosphorylation of Akt at Serine 473 in U87 MG cells; assay: pAkt AlphaScreen (U87 cell); assay type: cell-based; conditions: Homo sapiens, U-87 MG, 2 h; pAkt at Serine 473, U87 MG cells, two hours with compound
Outline: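 U87 MG cells (5K per well, plated overnight) treated 2 h at 37 °C with compound, 25 μM to 11.9 pM final in 0.5% DMSO. Lysates assayed for Akt Ser473 phosphorylation with SureFire AlphaScreen, incubated overnight at room temperature; IC50 from percent of control.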

## Cc1nc(N)cc(-c2c(Nc3ccn(C)n3)nc3ccc(-c4cccc(S(C)(=O)=O)c4)cn23)n1 [Cpd 65, 3-(6-amino-2-methyl-4-pyrimidinyl)-N-(1-methyl-1H-pyrazol-3-yl)-6-(3-(methylsulfonyl)phenyl)imidazo[1,2-a]pyridin-2-amine]
mTOR
  IC50: 340 nM
[1]
  IC50: 380 nM

## CC(=O)n1ccc(Nc2nc3cccnn3c2-c2cc(N)nc(C)n2)n1 [Cpd 67, N-(1-acetyl-1H-pyrazol-3-yl)-3-(6-amino-2-methyl-4-pyrimidinyl)imidazo[1,2-b]pyridazin-2-amine]
mTOR
  IC50: 10 nM
[1]
  IC50: 10 nM

## COCCOc1ccc2nc(Nc3cc[nH]n3)c(-c3cc(N)nc(C)n3)n2n1 [Cpd 69, 3-(6-amino-2-methyl-4-pyrimidinyl)-6-(2-methoxyethoxy)-N-1H-pyrazol-3-ylimidazo[1,2-b]pyridazin-2-amine]
mTOR
  IC50: 4 nM
[1]
  IC50: 1 nM

## CNc1cc(-c2c(Nc3cc[nH]n3)nc3ccc(N4CCOCC4)nn23)nc(C)n1 [Cpd 72, 3-(2-methyl-6-(methylamino)-4-pyrimidinyl)-6-(4-morpholinyl)-N-1H-pyrazol-3-ylimidazo[1,2-b]pyridazin-2-amine]
mTOR
  IC50: 40 nM
[1]
  IC50: 3 nM

## Cc1nc(N)cc(-c2c(Nc3cc[nH]n3)nc3ccc(OCCN4CCCC4)nn23)n1 [Cpd 73]
mTOR
  IC50: 50 nM
[1]
  IC50: 70 nM

## Cc1nc(NC(=O)N(C)C)cc(-c2c(Nc3cc[nH]n3)nc3cccnn23)n1 [Cpd 75, 1,1-dimethyl-3-(2-methyl-6-(2-(1H-pyrazol-3-ylamino)imidazo[1,2-b]pyridazin-3-yl)-4-pyrimidinyl)urea]
mTOR
  IC50: 1420 nM
[1]
  IC50: 790 nM

## Cc1nc(NC(=O)N2CCN(C)CC2)cc(-c2c(Nc3cc[nH]n3)nc3cccnn23)n1 [Cpd 77, 4-methyl-N-(2-methyl-6-(2-(1H-pyrazol-3-ylamino)imidazo[1,2-b]pyridazin-3-yl)-4-pyrimidinyl)-1-piperazinecarboxamide]
mTOR
  IC50: 2720 nM
[1]
  IC50: 1640 nM

## Cc1nc(NCC#N)cc(-c2c(Nc3cc[nH]n3)nc3cccnn23)n1 [Cpd 90]
mTOR
  IC50: 30 nM
[1]
  IC50: 20 nM

## Cc1nc(NC(=O)CN(C)C)cc(-c2c(Nc3ccn(C)n3)nc3cccnn23)n1 [Cpd 92]
mTOR
  IC50: 780 nM
[1]
  IC50: 180 nM

## Cc1nc(N)nc(-c2c(Nc3cc[nH]n3)nc3ccc(C4=CCN(C(=O)OC(C)(C)C)CC4)cn23)n1 [Cpd 97, tert-butyl 4-(3-(4-amino-6-methyl-1,3,5-triazin-2-yl)-2-(1H-pyrazol-3-ylamino)imidazo[1,2-a]pyridin-6-yl)-3,6-dihydro-1(2H)-pyridinecarboxylate]
mTOR
  IC50: 16 nM
[1]
  IC50: 30 nM

## CNC(=O)c1ccc(-c2ccc3nc(Nc4cc[nH]n4)c(-c4nc(C)nc(N)n4)n3c2)cc1F [Cpd 99, 4-(3-(4-amino-6-methyl-1,3,5-triazin-2-yl)-2-(1H-pyrazol-3-ylamino)imidazo[1,2-a]pyridin-6-yl)-2-fluoro-N-methylbenzamide]
mTOR
  IC50: 4 nM
[1]
  IC50: 10 nM

## CC(=O)NCc1ccc(-c2ccc3nc(Nc4cc[nH]n4)c(-c4nc(C)nc(N)n4)n3c2)cc1 [Cpd 100, N-(4-(3-(4-amino-6-methyl-1,3,5-triazin-2-yl)-2-(1H-pyrazol-3-ylamino)imidazo[1,2-a]pyridin-6-yl)benzyl)acetamide]
mTOR
  IC50: 1 nM
[1]
  IC50: 10 nM

## Cc1nc(N)nc(-c2c(Nc3cc[nH]n3)nc3ccc(-c4ccoc4)cn23)n1 [Cpd 105, 3-(4-amino-6-methyl-1,3,5-triazin-2-yl)-6-(3-furanyl)-N-1H-pyrazol-3-ylimidazo[1,2-a]pyridin-2-amine]
mTOR
  IC50: 14 nM
[1]
  IC50: 50 nM

## Cc1nc(N)nc(-c2c(Nc3cc[nH]n3)nc3ccc(-c4ccc(F)cc4C)cn23)n1 [Cpd 107, 3-(4-amino-6-methyl-1,3,5-triazin-2-yl)-6-(4-fluoro-2-methylphenyl)-N-1H-pyrazol-3-ylimidazo[1,2-a]pyridin-2-amine]
mTOR
  IC50: 40 nM
[1]
  IC50: 130 nM

## CSc1cccc(-c2ccc3nc(Nc4cc[nH]n4)c(-c4nc(C)nc(N)n4)n3c2)c1 [Cpd 109, 3-(4-amino-6-methyl-1,3,5-triazin-2-yl)-6-(3-(methylsulfanyl)phenyl)-N-1H-pyrazol-3-ylimidazo[1,2-a]pyridin-2-amine]
mTOR
  IC50: 50 nM
[1]
  IC50: 220 nM

## CC(=O)Nc1cccc(-c2ccc3nc(Nc4cc[nH]n4)c(-c4nc(C)nc(N)n4)n3c2)c1 [Cpd 114, N-(3-(3-(4-amino-6-methyl-1,3,5-triazin-2-yl)-2-(1H-pyrazol-3-ylamino)imidazo[1,2-a]pyridin-6-yl)phenyl)acetamide]
mTOR
  IC50: 10 nM
[1]
  IC50: 30 nM

## Cc1nc(N)nc(-c2c(Nc3cc[nH]n3)nc3ccc(-c4cccc(NC(=O)C5CC5)c4)cn23)n1 [Cpd 115, N-(3-(3-(4-amino-6-methyl-1,3,5-triazin-2-yl)-2-(1H-pyrazol-3-ylamino)imidazo[1,2-a]pyridin-6-yl)phenyl)cyclopropanecarboxamide]
mTOR
  IC50: 3 nM
[1]
  IC50: 40 nM

## Cc1nc(NC(=O)C2CC2)cc(-c2c(Nc3cc[nH]n3)nc3cccnn23)n1 [Cpd 120]
mTOR
  IC50: 290 nM
[1]
  IC50: 110 nM

## COCC(=O)Nc1cc(-c2c(Nc3ccn(C)n3)nc3cccnn23)nc(C)n1 [Cpd 123, 2-methoxy-N-(2-methyl-6-(2-((1-methyl-1H-pyrazol-3-yl)amino)imidazo[1,2-b]pyridazin-3-yl)-4-pyrimidinyl)acetamide]
mTOR
  IC50: 140 nM
[1]
  IC50: 150 nM

## Cc1nc(NC(=O)CC#N)cc(-c2c(Nc3ccn(C)n3)nc3ccccn23)n1 [Cpd 126, 2-cyano-N-(2-methyl-6-(2-((1-methyl-1H-pyrazol-3-yl)amino)imidazo[1,2-a]pyridin-3-yl)-4-pyrimidinyl)acetamide]
mTOR
  IC50: 690 nM
[1]
  IC50: 220 nM

## Cc1nc(NC(=O)CC(F)(F)F)cc(-c2c(Nc3ccn(C)n3)nc3cccnn23)n1 [Cpd 134, 3,3,3-trifluoro-N-(2-methyl-6-(2-((1-methyl-1H-pyrazol-3-yl)amino)imidazo[1,2-b]pyridazin-3-yl)-4-pyrimidinyl)propanamide]
mTOR
  IC50: 820 nM
[1]
  IC50: 210 nM

## Cc1nc(Nc2ccc(N3CCOC(C)C3)nn2)cc(-c2c(Nc3cc[nH]n3)nc3cccnn23)n1 (stereo not shown) [Cpd 140, 3-(2-methyl-6-((6-(2-methyl-4-morpholinyl)-3-pyridazinyl)amino)-4-pyrimidinyl)-N-1H-pyrazol-3-ylimidazo[1,2-b]pyridazin-2-amine]
mTOR
  IC50: 110 nM
[1]
  IC50: 90 nM

## Cc1nc(N)cc(-c2c(Nc3cccc(N4CCN(C)CC4)c3)nc3cccnn23)n1 [Cpd 151, 3-(6-amino-2-methyl-4-pyrimidinyl)-N-(3-(4-methyl-1-piperazinyl)-phenyl)imidazo[1,2-b]pyridazin-2-amine]
mTOR
  IC50: 430 nM
[1]
  IC50: 5380 nM

## Cc1nc(N)nc(-c2c(Nc3cc[nH]n3)nc3ccc(Nc4ccncc4)cn23)n1 [Cpd 166]
mTOR
  IC50: 25 nM
[1]
  IC50: 450 nM

## Cc1nc(N)nc(-c2c(Nc3cc[nH]n3)nc3ccc(-c4ccc5c(c4)CCNC5=O)cn23)n1 [Cpd 175, 6-(3-(4-amino-6-methyl-1,3,5-triazin-2-yl)-2-(1H-pyrazol-3-ylamino)imidazo[1,2-a]pyridin-6-yl)-3,4-dihydro-1(2H)-isoquinolinone]
mTOR
  IC50: 2 nM
[1]
  IC50: 30 nM

## Cc1nc(N)nc(-c2c(Nc3cc[nH]n3)nc3ccc(-c4ccc(C(=O)O)cc4C)cn23)n1 [Cpd 177, 4-(3-(4-amino-6-methyl-1,3,5-triazin-2-yl)-2-(1H-pyrazol-3-ylamino)imidazo[1,2-a]pyridin-6-yl)-3-methylbenzoic acid]
mTOR
  IC50: 1 nM
[1]
  IC50: 170 nM

## Cc1nc(N)nc(-c2c(Nc3cc[nH]n3)nc3cc(C4=CCN(C(=O)OC(C)(C)C)CC4)ccn23)n1 [Cpd 183, tert-butyl 4-(3-(4-amino-6-methyl-1,3,5-triazin-2-yl)-2-(1H-pyrazol-3-ylamino)imidazo[1,2-a]pyridin-7-yl)-3,6-dihydro-1(2H)-pyridinecarboxylate]
mTOR
  IC50: 460 nM
[1]
  IC50: 760 nM

## COCCOc1ccn2c(-c3nc(C)nc(N)n3)c(Nc3cc[nH]n3)nc2c1 [Cpd 185, 3-(4-amino-6-methyl-1,3,5-triazin-2-yl)-7-(2-methoxyethoxy)-N-1H-pyrazol-3-ylimidazo[1,2-a]pyridin-2-amine]
mTOR
  IC50: 40 nM
[1]
  IC50: 50 nM

## Cc1nc(N)nc(-c2c(Nc3cc[nH]n3)nc3cc(OCCN4CCCC4)ccn23)n1 [Cpd 188]
mTOR
  IC50: 360 nM
[1]
  IC50: 320 nM
